Blank lines part the entries; values can stand above or below the molecule they belong to. Starred links: 1 amine or outer side, 2 acyl side, 3 side chain; linkers in the order of their positions; H or OH if unused. Non-standard residues stand in square brackets, D forms with d. Residues, ends and D or L forms follow the SMILES beside them. *: point of attachment. dBip = N[C@H](Cc1ccc(-c2ccccc2)cc1)C(=O)O; Oic = O=C(O)[C@@H]1C[C@@H]2CCCC[C@@H]2N1; Phe(4-Cl) = N[C@@H](Cc1ccc(Cl)cc1)C(=O)O; dPhe(4-Cl) = N[C@H](Cc1ccc(Cl)cc1)C(=O)O; Phe(4-I) = N[C@@H](Cc1ccc(I)cc1)C(=O)O; γGlu = O=C(O)[C@H](CCC(=O)[*:2])N[*:1]; HOOC(CH2)8CO = O=C(O)CCCCCCCCC(=O)*; d(β3hF) = N[C@@H](CC(=O)O)Cc1ccccc1; NMeR = CN[C@@H](CCCNC(=N)N)C(=O)O; Palmitoyl = CCCCCCCCCCCCCCCC(=O)*; Tridecanoyl = CCCCCCCCCCCCC(=O)*; hArg = N=C(N)NCCCC[C@H](N)C(=O)O; Cha = N[C@@H](CC1CCCCC1)C(=O)O; NMeL = CN[C@@H](CC(C)C)C(=O)O; Ac6c = NC1(C(=O)O)CCCCC1; Nle = CCCC[C@H](N)C(=O)O; AEEA = NCCOCCOCC(=O)O; βAla = NCCC(=O)O
What was measured:
human APJ receptor = biological target: T1, human APJ receptor (Homo sapiens, UniProt P35414); test: [35S] GTPγS assay, human APJ receptor; assay type: biochemical
T1 construct: expressed in transfected cells
T1 sequence (P35414 1-380): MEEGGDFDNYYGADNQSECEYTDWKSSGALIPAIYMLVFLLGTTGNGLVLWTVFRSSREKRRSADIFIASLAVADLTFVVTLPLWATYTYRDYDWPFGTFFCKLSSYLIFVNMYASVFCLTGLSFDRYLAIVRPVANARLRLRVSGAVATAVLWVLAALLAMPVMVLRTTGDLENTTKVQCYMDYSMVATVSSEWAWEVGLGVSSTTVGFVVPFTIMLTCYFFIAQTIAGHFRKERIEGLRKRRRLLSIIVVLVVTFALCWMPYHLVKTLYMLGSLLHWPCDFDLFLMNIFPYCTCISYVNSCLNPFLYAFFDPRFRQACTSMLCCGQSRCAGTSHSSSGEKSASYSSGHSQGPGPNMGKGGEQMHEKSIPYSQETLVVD

[1] = In vitro stability in rat kidney homogenate; assay type: in vitro ADME; conditions: rat, tissue homogenate
Method in brief: (§1)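 High resolution LC-MS of the supernatant gave remaining peptide. Samples came from 37° C. incubations of 5 μM apelin peptide in rat plasma or liver or kidney homogenate over 4 hr, stopped with methanol plus internal standard.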

[2] = In vitro stability in rat plasma; assay type: in vitro ADME
Method in brief: as §1

[3] = In vitro stability in rat liver homogenate; assay type: in vitro ADME; conditions: tissue homogenate
Method in brief: as §1

rat APJ receptor = biological target: T2, rat APJ receptor (Rattus norvegicus, UniProt Q9JHG3); test: [35S] GTPγS assay, rat APJ receptor; assay type: biochemical; conditions: rat APJ receptor, read-out: EC50 Rat APJ Receptor
T2 construct: expressed in transfected cells
T2 sequence (Q9JHG3 1-377): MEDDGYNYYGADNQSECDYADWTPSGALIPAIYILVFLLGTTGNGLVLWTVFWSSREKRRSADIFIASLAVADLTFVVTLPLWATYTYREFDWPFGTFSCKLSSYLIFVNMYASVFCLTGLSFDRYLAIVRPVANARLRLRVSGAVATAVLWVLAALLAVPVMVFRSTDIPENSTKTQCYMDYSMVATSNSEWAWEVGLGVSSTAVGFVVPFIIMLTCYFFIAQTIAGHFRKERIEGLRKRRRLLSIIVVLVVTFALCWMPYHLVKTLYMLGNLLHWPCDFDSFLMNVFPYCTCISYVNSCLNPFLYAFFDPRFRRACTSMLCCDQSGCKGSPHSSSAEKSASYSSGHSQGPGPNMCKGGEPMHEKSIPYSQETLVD
Procedure: The membranes were incubated with modified peptides in the assay buffer. […] Bound [^35S] GTPγS was separated from free radiolabel by filtration. The filter bound radioactivity was determined by liquid scintillation counting.

EC50 (human APJ receptor; human APJ receptor): 38.5 nM
Compound: CC(C)C[C@@H](C(=O)N[C@@H](CO)C(=O)N[C@@H](Cc1c[nH]cn1)C(=O)N[C@@H](CCCCN)C(=O)NCC(=O)N1[C@H](C(=O)N[C@@H](Cc2ccc(I)cc2)C(=O)N2CCC[C@H]2C(=O)N[C@H](Cc2ccc(-c3ccccc3)cc2)C(=O)O)C[C@@H]2CCCC[C@@H]21)N(C)C(=O)[C@@H](CCCNC(=N)N)NC(=O)[C@@H]1CCCN1C(=O)[C@H](CCCCNC(=N)N)NC(=O)[C@H](CCC(N)=O)NC(=O)COCCOCCNC(=O)COCCOCCNC(=O)CC[C@H](NC(=O)CCCCCCCCC(=O)O)C(=O)O [compound 288] ({HOOC(CH2)8CO-γGlu-AEEA-AEEA}-Q[hArg]P[dR][NMeL]SHKG[Oic][Phe(4-I)]P[dBip]-OH)

EC50 (human APJ receptor; human APJ receptor): 3.38 nM
Compound: CC(C)C[C@@H](C(=O)N[C@@H](CO)C(=O)N[C@@H](Cc1c[nH]cn1)C(=O)N[C@@H](CCCCN)C(=O)NCC(=O)N1[C@H](C(=O)N[C@@H](Cc2ccc(I)cc2)C(=O)N2CCC[C@H]2C(=O)N[C@H](Cc2ccc(-c3ccccc3)cc2)C(=O)O)C[C@@H]2CCCC[C@@H]21)N(C)C(=O)[C@@H](CCCNC(=N)N)NC(=O)[C@@H]1CCCN1C(=O)[C@H](CCCCNC(=N)N)NC(=O)[C@H](CCC(N)=O)NC(=O)[C@@H](CCCNC(=N)N)NC(=O)[C@H](CCCCNC(=N)N)NC(=O)COCCOCCNC(=O)COCCOCCNC(=O)CC[C@H](NC(=O)CCCCCCCCC(=O)O)C(=O)O [compound 291]

EC50 (human APJ receptor; Table 16): > 4170 nM
Compound: CCCCCCCCCCCCC(=O)N[C@@H](CCC(=O)NCCOCCOCC(=O)NCCOCCOCC(=O)N[C@H](CCC(N)=O)C(=O)N[C@@H](CCCCNC(=N)N)C(=O)N1CCC[C@H]1C(=O)N(C)[C@@H](CCCNC(=N)N)C(=O)N[C@@H](CC1CCCCC1)C(=O)N[C@@H](CO)C(=O)N[C@@H](Cc1c[nH]cn1)C(=O)N[C@@H](CCCCN)C(=O)NCCC(=O)N1[C@H](C(=O)N[C@@H](CCCC)C(=O)N2CCC[C@H]2C(=O)N[C@H](Cc2ccc(Cl)cc2)C(=O)O)C[C@@H]2CCCC[C@@H]21)C(=O)O [compound 294] ({Tridecanoyl-γGlu-AEEA-AEEA}-[dQ][hArg]P[NMeR][Cha]SHK[βAla][Oic][Nle]P[dPhe(4-Cl)]-OH)

EC50 (human APJ receptor; human APJ receptor): 17.9 nM
Compound: CCCCCCCCCCCCC(=O)N[C@@H](CCC(=O)NCCOCCOCC(=O)NCCOCCOCC(=O)N[C@@H](CCCCNC(=N)N)C(=O)N[C@@H](CCCC)C(=O)N[C@@H](CCC(N)=O)C(=O)N[C@@H](CCCCNC(=N)N)C(=O)N1CCC[C@H]1C(=O)N[C@H](CCCNC(=N)N)C(=O)N(C)[C@@H](CC(C)C)C(=O)N[C@@H](C)C(=O)N[C@@H](Cc1c[nH]cn1)C(=O)N[C@@H](CCCCN)C(=O)NCC(=O)N1[C@H](C(=O)N[C@@H](Cc2ccc(I)cc2)C(=O)N2CCC[C@H]2C(=O)N[C@H](Cc2ccc(-c3ccccc3)cc2)C(=O)O)C[C@@H]2CCCC[C@@H]21)C(=O)O [compound 321] ({Tridecanoyl-γGlu-AEEA-AEEA}-[hArg][Nle]Q[hArg]P[dR][NMeL]AHKG[Oic][Phe(4-I)]P[dBip]-OH)

EC50 (human APJ receptor; Table 16): 2.77 nM
Compound: CCCCCCCCCCCCC(=O)N[C@@H](CCC(=O)NCCOCCOCC(=O)NCCOCCOCC(=O)N[C@@H](CCCNC(=N)N)C(=O)N[C@@H](CCC(N)=O)C(=O)N[C@@H](CCCNC(=N)N)C(=O)N1CCC[C@H]1C(=O)N[C@@H](CCCCN)C(=O)N[C@@H](CC1CCCCC1)C(=O)N[C@@H](C)C(=O)N[C@@H](C)C(=O)N[C@@H](CCCC)C(=O)NCC(=O)N1[C@H](C(=O)N[C@@H](CCCC)C(=O)N2CCC[C@H]2C(=O)N[C@@H](Cc2ccc(Cl)cc2)C(=O)O)C[C@@H]2CCCC[C@@H]21)C(=O)O [compound 346] ({Tridecanoyl-γGlu-AEEA-AEEA}-RQRPK[Cha]AA[Nle]G[Oic][Nle]P[Phe(4-Cl)]-OH)

remaining at 4 h, 5 μM [1]: 27% | remaining at 4 h, 5 μM [2]: 79% | remaining at 4 h, 5 μM [3]: 59% | EC50 (rat APJ receptor): 4.25 nM
Compound: CCCCCCCCCCCCCCCC(=O)N[C@@H](CCC(=O)NCCOCCOCC(=O)NCCOCCOCC(=O)N[C@H](CCC(N)=O)C(=O)N[C@@H](CCCNC(=N)N)C(=O)N1CCC[C@H]1C(=O)N(C)[C@@H](CCCNC(=N)N)C(=O)N[C@@H](CC1CCCCC1)C(=O)N[C@@H](CO)C(=O)N[C@@H](Cc1c[nH]cn1)C(=O)N[C@@H](CCCCN)C(=O)NCC(=O)N1[C@H](C(=O)N[C@@H](CCCC)C(=O)N[C@@H](CC(=O)O)Cc2ccccc2)C[C@@H]2CCCC[C@@H]21)C(=O)O [compound 573] ({Palmitoyl-γGlu-AEEA-AEEA}-[dQ]RP[NMeR][Cha]SHKG[Oic][Nle][d(β3hF)]-OH)

remaining at 4 h, 5 μM [1]: 6% | remaining at 4 h, 5 μM [2]: 62% | remaining at 4 h, 5 μM [3]: 77% | EC50 (rat APJ receptor): 52.2 nM
Compound: CCCCCCCCCCCCCCCC(=O)N[C@@H](CCC(=O)NCCOCCOCC(=O)NCCOCCOCC(=O)N[C@H](CCC(N)=O)C(=O)N[C@@H](CCCNC(=N)N)C(=O)N1CCC[C@H]1C(=O)N(C)[C@@H](CCCNC(=N)N)C(=O)N[C@@H](CC1CCCCC1)C(=O)N[C@@H](CO)C(=O)N[C@@H](Cc1c[nH]cn1)C(=O)N[C@@H](CCCCN)C(=O)NCC(=O)N1[C@H](C(=O)N[C@@H](CCCC)C(=O)NC2(C(=O)N[C@@H](Cc3ccc(Cl)cc3)C(=O)O)CCCCC2)C[C@@H]2CCCC[C@@H]21)C(=O)O [compound 584] ({Palmitoyl-γGlu-AEEA-AEEA}-[dQ]RP[NMeR][Cha]SHKG[Oic][Nle][Ac6c][Phe(4-Cl)]-OH)
